From patent publication US8524193B2, “Non-invasive diagnostic imaging technology for mitochondria using radiolabeled lipophilic salts” (The Johns Hopkins University, priority 2002, dated 2013)
Several values for one entry are separate records, joined by “and”; a condition that tells them apart may be missing. Equal entries are not always repeated. Where two headings read alike, the source gives them in different places.

Key:
FCA-induced inflammation = test: Accumulation in FCA-induced inflammation tissue and healthy muscle; type: in vivo, rats; conditions: for Inf/Control: ratio inflammation tissue to healthy muscle, 3 days after FCA; for Accumulation, Control: rats, healthy muscle, 3 days after administration of FCA
Experimental: (§1) 0.1 ml of nitrosomethyl urea (NUM) was introduced i.p in female rats (150 g). When tumor reached an approximate size of 1 to 1.5 cm, FCA was injected (0.15 ml) to the hind limb footpad. Uptake assays were carried out 3 days thereafter. F-18-FBnTP (0.25 mCi) was injected via tail vein. Sixty minutes later tumor, inflamed tissue and healthy muscle tissue of the opposite limb (control) were collected on ice, weighed and counted in a gamma counter together with standards.
The accumulation of the novel F-18-phosphonium cations, F-18-FBnTP and F-18-fluoropropyl triphenyl phosphonium (F-18-FPTP) in comparison with F18-FDG in FCA-induced inflammation and healthy tissue is presented in Table 2. Induction of inflammation and activity counting were carried out as described above. Fluorophosphonium compounds accumulate in inflammation much less than FDG (Table 2). These date provide strong evidence to our claim that F-18-phosphonium compound are suitable for differentiation of tumor from inflammation and may resolve a major drawback of F-18-FDG. Table 2: Accumulation of Fluorophosphonium Compounds (FBnTP and FPTP) FDG in inflammation tissue and healthy muscle 3 days after administration of FCA.

[1] = C-11-TPMP uptake kinetics in the myocardium (PET); type: in vivo; conditions: dog, five-fold increase (by adenosine) in flow
Experimental: We have examined the performance of C-11-triphenyl phosphonium cation (TPMP) for assessing regional myocardial flow in dog using PET (Kraus, 1994).
Methods: Four mCi of C-11-TPMP were introduced i.v., and dynamic images of increasing duration (15 sec to 20 min) were acquired over a total time of 85 min. Images were acquired on the GE 4096+ PET scanner (15 slices, 6.5 mm slice thickness). Images were reconstructed using backprojection, and corrected for attenuation. A detailed description of methods appears in Kraus, 1994. These images show excellent visualization of the myocardium with a high contrast to the surrounding lung tissue. During the plateau time period heart/lung ratio was >14:1, and heart/blood >100:1. Under baseline conditions (flow=69 ml/min/100 g), the extraction fraction is very high (91%). […] To investigate the relationship between myocardial blood flow and C-11-TPMP uptake in the heart, the LAD was occluded and the C-11-TPMP accumulation in tissue samples compared to microsphere determined regional myocardial blood flow. A significant correlation (r=0.93, p<0.01) was found at 5 min after LAD occlusion (FIG. 12). The non-infracted/infracted myocardium ratio was 12.1±2.4. […] Thallium 201 extraction under baseline flow is about 80%, decreasing to about 60% for five-fold increases in flow rate. […]

[2] = cited from earlier work
[3] = Stability of F-18-FBnTP in plasma after injection into mice (column switch HPLC); type: in vivo
Experimental: Radiochemical purity of F-18-FBnTP and its stability in vivo was measured by chromatography.
Samples of mouse plasma were obtained from heparinized whole bloodcollected 5, 15 and 30 min p.i. of the tracer. To eliminate binding to plasma proteins, the plasma was added to solid urea to give a final concentration of 8M urea. The plasma-urea was loaded into a column switch HPLC system (Hilton 2000), in which the plasma passes through a small capture column (Oasis Sorbent, Waters Corp.), which retains lipophilic solutes, while polar species fail to bind and are detected as they pass through a positron detector. After four minutes, the capture column is free of plasma proteins and polar species. Then, the contents of the capture column was swept onto an analytical column (Prodigy ODS-3, Phenomenex) by 40% acetonitrile, 60% triethylamine acetate buffer pH 4.1 at 1 mL/min, where separation of the parent compound and lipophilic metabolites occurs. The effluent from the analytical column also passes through the positron flow detector. The proportion of each species is determined from the area under each chromatographic peak. Results: Radiochemical purity of the 18F-labeled FBnTP was more than 95%. […] FIG. 1 depicts the chromatogram of plasma collected 30 min p.i., and the parental compound incubated for a similar time period (30 min) in buffered saline. […]

[4] = Stability of fluorination: total bone uptake; type: in vivo; conditions: mice, 5 and 30 min p.i., compared to mice injected with F-18 only; listed as F-18-FBnTP
Experimental: Methods: Mice were injected via the tail vein with 25 μCi of F-18-PhC; 5 and 30 min p.i., the left or right femur bone was removed, and bone radioactivity together with standard (1:100 of injected dose) were counted in a gamma counter. A parallel group of mice was injected with free fluorides (F-18). Three mice of each group were studied at each time point. Radioactivity is represented as percentage of injected dosed (% ID) and total bone uptake was calculated as activity in femur bone ×20.

[5] = test system: Human lung carcinoma H549 cells; test: Mitochondria membrane potential (MMP)-dependent cellular uptake with CCCP; type: cell-based; conditions: CCCP 30, 60, 90, 120 μM, 30 min
Experimental: The extent of MMP-dependent cellular uptake of F-18-FBnTP was assessed using CCCP, a known protonophore that selectively abolishes the MMP.
Methods: Human lung carcinoma H549 cells ([…]) were incubated with 0.1 μCi/ml F-18-FBnTP for 30 min. Samples of the suspension (1 mL) were transferred to Eppendorf's vials and placed in a 370 C bath. Varying concentrations (30, 60, 90, 120 μM) of CCCP were added to the suspension. After 30 min of incubation with CCCP, the Eppendorf vials were centrifuged for 1 min, and activity in pellet and supernatant was immediately counted.

[6] = test system: orthotopic NMU mammary tumor; test: Uptake in NMU mammary tumor versus healthy gland and FCA inflammation; type: in vivo; conditions: NMU-bearing female rats, 60 min after injection, normalized to muscle
Source text: The carcinogen nitrosomethyl urea (NMU) induces carcinoma tumors solely in the mammary gland of female rats. Therefore, the orthotopic NMU mammary tumor is an excellent model for evaluating tracer tumor selectivity by contrasting radioactivity accumulating in mammary gland infested with carcinoma cells and healthy mammary gland. Freund Complete Adjuvant (FCA) is a well_studied inflammation agent in rats Induction of FCA inflammation in NMU-bearing rats allows for direct quantitation of tracer capability to differentiate carcinoma from inflammation.
as §1

[7] = F-18-FBnTP uptake kinetics in the myocardium (PET); type: in vivo, Mongrel dogs; conditions: dog PET
Experimental: Methods: Mongrel dogs (BW=35 kg) were injected with 3-4 mCi of F-18-FBnTP. Images were acquired on a GE 4096+ scanner (15 slices, 6.5 mm slice thickness). PET scans of increasing duration (15 sec to 20 min) were acquired over a total time of 85 min post-injection. Arterial blood samples (0.5 ml in volume) were collected every few seconds for the first 3 minutes and at gradually increasing intervals (1 to 10 min) for the remaining time of the imaging study. The vascular and myocardial kinetics of F-18-FBnTP was analyzed using the ROI method.

[8] = F-18-FBnTP myocardial accumulation in pacing model of heart failure (PET); type: in vivo, mongrel dog
Experimental: Pacing of the mongrel dog heart at high rate (210 bpm) for a four weeks is a well-established model of heart failure. The advantage of this model is that the cardiomyopathy solely involve apoptosis without stenosis of coronary artery or related ischemia. Therefore, in this model the affect of apoptosis on FBnTP uptake can be dissected.
Methods: Preparation of dog and data acquisition was performed as described above. Mongrel dog was installed with a pacemaker in the rib case and underwent FBnTP PET scan (presented above). Following the baseline scan, the dog_s heart was paced at a rate of 210 bpm for 4 weeks and a second scan was acquired.
FIG. 18 depicts co-registered images before and after pacing. […] Quantitation of FBnTP in the myocardium was performed using region of interest placed on co-registered myocardial images, whose activity was normalized to the injected dose, before and after pacing. An example for ROI placement is illustrated in FIG. 18.

[9] = five-fold increases in flow rate / high flow rates

## OC[C@H]1OC(O)[C@H]([18F])[C@@H](O)[C@@H]1O (some centres unmarked) [[^18F]FDG, reference compound]
FCA-induced inflammation
  Inf/Control: 1.20 and 2.12
  Accumulation, Control: 1.05 ± 0.35 % ID/g tissue and 0.68 ± 0.14 % ID/g tissue

## [11CH3][P+](c1ccccc1)(c1ccccc1)c1ccccc1 [[11C]TPMP, C-11-triphenylmethyl phosphonium]
[1]
  decrease of the extraction fraction: 39%

## Thallium 201
[2]; baseline / normal flow
  myocardial extraction: about 80%
[2]; [9]
  myocardial extraction: about 60%

## [18F]c1ccc(C[P+](c2ccccc2)(c2ccccc2)c2ccccc2)cc1 [[18F]FBnTP, F-18-fluorobenzyl triphenyl phosphonium]
[3]; mice, plasma radiochromatograms
  stable after intravenous injection of the tracer in vivo: more than 30 min
[3]; mouse plasma collected 5, 15 and 30 min p.i., no other peak observed
  single radio-peak in plasma chromatography, share of total activity: 97%
[4]
  total bone uptake: minimal bone uptake
[5]
  MMP-dependent share of cellular uptake: 86%
[6]
  uptake in tumor relative to healthy gland: 4 times
[6]; FCA inflammation 3 days
  uptake in tumor relative to inflammation: 3 times
FCA-induced inflammation
  Inf/Control: 0.42
  Accumulation, Control: 0.76 ± 0.21 % ID/g tissue
[7]; arterial blood samples
  washout from the blood pool: rapid washout
[7]; persisted for the remaining scanning time (85 min)
  time to equilibrium of accumulation in the myocardium: within a few minutes
[8]; Slices 36-37, ROI1
  Ratio P/B: 0.62
[8]; Slices 36-37, ROI2
  Ratio P/B: 0.91
[8]; Slices 36-37, ROI3
  Ratio P/B: 0.85
[8]; Slices 46-49, ROI1
  Ratio P/B: 0.56
[8]; Slices 46-49, ROI2
  Ratio P/B: 0.76
[8]; Slices 46-49, ROI3
  Ratio P/B: 0.82
[8]; dog, 210 bpm for 4 weeks, p<0.001
  decrease in uptake in the inferior wall after pacing: 40-60%

## [99Tc].[C-]#[N+]CC(C)(C)OC.[C-]#[N+]CC(C)(C)OC.[C-]#[N+]CC(C)(C)OC.[C-]#[N+]CC(C)(C)OC.[C-]#[N+]CC(C)(C)OC.[C-]#[N+]CC(C)(C)OC [[^99mTc]MIBI, Tc-99m-sestamibii]
[2]; baseline / normal flow
  myocardial extraction: about 60%
[2]; [9]
  myocardial extraction: 40%

## [18F]CCC[P+](c1ccccc1)(c1ccccc1)c1ccccc1 [[18F]FPTP, [^18F]3-fluoropropyltriphenyl-phosphonium ion]
FCA-induced inflammation
  Inf/Control: 0.25
  Accumulation, Control: 0.29 ± 0.06 % ID/g tissue
